Data taken from PMC6858497 (The Journal of physiology, 2019).
“And” between values parts separate entries of the source, which are not always exact repeats. Equal values may be shown once.

Experiments:
GluN1–1a/2B = GluN1–1a/2B (Rattus norvegicus, UniProt P35439+Q00960); assay: Two-electrode voltage-clamp recordings, Xenopus oocytes; format: cell-based; conditions: for nH (Hill coefficient): inhibition
GluN1–1a/2BC1/2DC2 = GluN1–1a/2BC1/2DC2 (Rattus norvegicus, UniProt P35439+Q00959+Q00960+Q62645, A876H/F846L/G856D/H848F/K857R/M851T/M860L/Q845K/R869K/V861L/V866F); assay: as above; format: cell-based; conditions: for Relative Imin: fitted minimal response relative to control; for nH (Hill coefficient): inhibition
GluN1–1a/2D = GluN1–1a/2D (Rattus norvegicus, UniProt P35439+Q62645); assay: as above; format: cell-based; conditions: for nH (Hill coefficient): inhibition
Sequence of GluN1–1a/2D (Q62645 28-1323, other chains not shown): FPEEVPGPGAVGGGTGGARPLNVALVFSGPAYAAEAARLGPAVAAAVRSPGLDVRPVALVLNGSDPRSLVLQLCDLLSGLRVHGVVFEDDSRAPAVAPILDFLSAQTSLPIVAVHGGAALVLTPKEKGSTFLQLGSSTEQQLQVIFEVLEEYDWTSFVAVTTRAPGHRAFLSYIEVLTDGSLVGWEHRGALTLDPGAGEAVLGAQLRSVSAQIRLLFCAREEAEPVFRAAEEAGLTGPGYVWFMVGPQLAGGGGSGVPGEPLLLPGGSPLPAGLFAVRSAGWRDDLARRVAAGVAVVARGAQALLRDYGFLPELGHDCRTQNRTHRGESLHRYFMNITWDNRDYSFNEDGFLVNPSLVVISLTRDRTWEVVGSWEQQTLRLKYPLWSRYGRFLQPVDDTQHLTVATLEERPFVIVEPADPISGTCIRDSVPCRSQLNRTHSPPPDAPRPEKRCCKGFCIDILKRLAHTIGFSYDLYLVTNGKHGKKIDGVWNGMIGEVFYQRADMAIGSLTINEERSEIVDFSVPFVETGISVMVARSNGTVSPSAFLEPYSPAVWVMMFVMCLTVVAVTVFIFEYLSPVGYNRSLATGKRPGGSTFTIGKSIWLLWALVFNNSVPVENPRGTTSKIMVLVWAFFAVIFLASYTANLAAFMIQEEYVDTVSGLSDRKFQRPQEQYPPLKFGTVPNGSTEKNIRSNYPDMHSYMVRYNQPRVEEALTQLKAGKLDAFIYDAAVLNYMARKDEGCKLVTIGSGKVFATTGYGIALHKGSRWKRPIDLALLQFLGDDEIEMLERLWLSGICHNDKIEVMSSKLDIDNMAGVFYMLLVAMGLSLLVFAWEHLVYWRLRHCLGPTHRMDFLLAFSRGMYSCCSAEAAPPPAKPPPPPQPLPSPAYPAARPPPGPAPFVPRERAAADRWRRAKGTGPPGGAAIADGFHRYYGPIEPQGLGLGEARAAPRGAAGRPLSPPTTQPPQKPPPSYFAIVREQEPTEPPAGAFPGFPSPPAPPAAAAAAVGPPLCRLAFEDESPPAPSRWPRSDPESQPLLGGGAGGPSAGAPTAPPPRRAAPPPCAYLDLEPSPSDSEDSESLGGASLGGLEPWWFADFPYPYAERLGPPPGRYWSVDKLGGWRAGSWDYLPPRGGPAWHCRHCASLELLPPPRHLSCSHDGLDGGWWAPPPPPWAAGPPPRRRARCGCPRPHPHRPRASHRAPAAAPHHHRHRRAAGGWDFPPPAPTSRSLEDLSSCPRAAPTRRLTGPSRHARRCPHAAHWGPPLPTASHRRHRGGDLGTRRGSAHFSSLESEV

[1] = system: NMDAR-EPSCs in hippocampal CA1 pyramidal cells; assay: Whole-cell patch-clamp of NMDAR-EPSCs in acute hippocampal slices; format: cell-based, mouse; conditions: for NMDAR-EPSC peak amplitude, % of baseline: 10 μM, +40 mV, P21–28 slices; for effect on EPSC decay time: treatment versus baseline, paired t test, 10 μM (spermine 100 μM)
[2] = system: NMDAR-EPSCs in hippocampal interneurons (CA1 s.r./s.l.m.); assay: as above; format: cell-based, mouse; conditions: for NMDAR-EPSC peak amplitude, % of baseline: 10 μM, +40 mV, P21–28 slices
[3] = isoform 1a, 300 μM glutamate plus 100 μM glycine
[4] = fitted minimal response relative to control, isoform 1a
[5] = IC50, channel block, −20 mV, + 1 mM Mg2+
[6] = IC50, channel block, −20 mV, control (absence of Mg2+)
[7] = IC50, channel block, −40 mV, + 1 mM Mg2+
[8] = IC50, channel block, −40 mV, control (absence of Mg2+)
[9] = IC50, channel block, −60 mV, + 1 mM Mg2+
[10] = IC50, channel block, −60 mV, control (absence of Mg2+)
[11] = channel block, −20 mV, + 1 mM Mg2+
[12] = channel block, −20 mV, control (absence of Mg2+)
[13] = channel block, −40 mV, + 1 mM Mg2+
[14] = channel block, −40 mV, control (absence of Mg2+)
[15] = channel block, −60 mV, + 1 mM Mg2+
[16] = channel block, −60 mV, control (absence of Mg2+)
[17] = Mg2+ block, holding potential −40 mV
[18] = Mg2+ block, holding potential −60 mV
[19] = Mg2+ block, holding potential −80 mV
[20] = Mg2+ block, holding potential −100 mV
[21] = Woodhull model, current-voltage relationship with 0.1 mM Mg2+

Sequence of GluN1–1a/2B (Q00960 27-1482, other chains not shown): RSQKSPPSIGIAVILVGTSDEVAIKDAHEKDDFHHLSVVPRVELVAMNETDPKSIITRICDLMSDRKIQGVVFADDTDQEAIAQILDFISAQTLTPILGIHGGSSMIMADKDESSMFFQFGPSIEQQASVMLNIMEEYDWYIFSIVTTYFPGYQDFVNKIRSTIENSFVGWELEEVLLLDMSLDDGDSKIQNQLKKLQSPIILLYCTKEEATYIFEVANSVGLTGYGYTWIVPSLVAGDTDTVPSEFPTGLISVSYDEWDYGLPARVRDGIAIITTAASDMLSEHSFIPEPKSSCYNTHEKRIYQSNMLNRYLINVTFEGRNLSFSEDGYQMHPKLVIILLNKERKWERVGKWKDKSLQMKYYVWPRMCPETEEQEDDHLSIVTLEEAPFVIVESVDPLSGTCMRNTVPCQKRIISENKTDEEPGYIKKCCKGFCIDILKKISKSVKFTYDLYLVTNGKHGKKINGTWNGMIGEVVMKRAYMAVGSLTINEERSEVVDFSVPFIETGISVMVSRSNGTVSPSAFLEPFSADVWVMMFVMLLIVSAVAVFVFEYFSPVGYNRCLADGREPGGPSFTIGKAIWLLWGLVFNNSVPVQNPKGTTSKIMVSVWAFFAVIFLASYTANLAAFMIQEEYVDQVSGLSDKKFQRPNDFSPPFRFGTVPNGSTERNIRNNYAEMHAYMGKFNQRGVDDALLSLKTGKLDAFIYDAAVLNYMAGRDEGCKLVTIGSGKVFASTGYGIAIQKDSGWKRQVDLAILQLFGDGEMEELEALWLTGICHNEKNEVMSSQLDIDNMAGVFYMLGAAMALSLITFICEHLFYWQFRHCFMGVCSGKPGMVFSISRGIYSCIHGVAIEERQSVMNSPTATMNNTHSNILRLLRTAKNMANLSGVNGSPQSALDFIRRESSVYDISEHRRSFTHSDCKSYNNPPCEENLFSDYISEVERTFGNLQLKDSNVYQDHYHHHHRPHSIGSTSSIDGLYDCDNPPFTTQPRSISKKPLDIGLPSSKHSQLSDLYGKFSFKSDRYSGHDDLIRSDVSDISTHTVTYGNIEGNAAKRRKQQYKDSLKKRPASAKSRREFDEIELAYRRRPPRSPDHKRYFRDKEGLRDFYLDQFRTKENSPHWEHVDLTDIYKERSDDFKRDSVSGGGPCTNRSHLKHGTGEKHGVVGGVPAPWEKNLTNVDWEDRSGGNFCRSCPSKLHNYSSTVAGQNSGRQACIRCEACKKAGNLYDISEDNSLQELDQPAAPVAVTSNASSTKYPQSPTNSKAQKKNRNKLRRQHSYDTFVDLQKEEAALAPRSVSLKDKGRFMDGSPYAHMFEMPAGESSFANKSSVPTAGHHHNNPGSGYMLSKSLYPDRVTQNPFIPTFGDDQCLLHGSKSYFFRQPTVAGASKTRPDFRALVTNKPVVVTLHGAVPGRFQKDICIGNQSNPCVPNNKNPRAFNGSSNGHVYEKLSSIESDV

Cc1ccc2[nH]c(=O)c(C3=NN(C(=O)CCC(=O)O)C(c4ccc(Br)cc4)C3)c(-c3ccccc3)c2c1 (centres unmarked) [DQP-1105]
Relative Imin (GluN1–1a/2B; at 30 μM, isoform 1a): 58 ± 2% | Relative Imin (GluN1–1a/2BC1/2DC2; isoform 1a): −8 ± 2 % | nH (Hill coefficient) (GluN1–1a/2BC1/2DC2; isoform 1a): 0.8 | maximal inhibition (GluN1–1a/2BC1/2DC2; isoform 1a): ~ 100% | IC50 (GluN1–1a/2BC1/2DC2; [3]): 13 ± 1 µM | Relative Imin (GluN1–1a/2D; [4]): −3 ± 1% | nH (Hill coefficient) (GluN1–1a/2D; isoform 1a): 1.0 | maximal inhibition (GluN1–1a/2D; isoform 1a): ~ 100% | IC50 (GluN1–1a/2D; [3]): 2.2 ± 0.1 µM

Cc1nccn1Cc1cc(-c2ccc(F)c(C(F)F)c2)cnn1.Cl.Cl [EVT-101]
Relative Imin (GluN1–1a/2B; [4]): 3 ± 1% | nH (Hill coefficient) (GluN1–1a/2B; isoform 1a): 1.0 | maximal inhibition (GluN1–1a/2B; isoform 1a): ~ 95% | IC50 (GluN1–1a/2B; [3]): 0.009 ± 0.001 µM | Relative Imin (GluN1–1a/2BC1/2DC2; isoform 1a): 37 ± 2 % | nH (Hill coefficient) (GluN1–1a/2BC1/2DC2; isoform 1a): 1.1 | maximal inhibition (GluN1–1a/2BC1/2DC2; isoform 1a): ~ 65% | IC50 (GluN1–1a/2BC1/2DC2; [3]): 0.012 ± 0.001 µM | Relative Imin (GluN1–1a/2D; at 3 μM, isoform 1a): 92 ± 2%

CNC1(c2ccccc2Cl)CCCCC1=O (centres unmarked) [ketamine]
IC50 (GluN1–1a/2B; [5]): 16.3 ± 1.9 µM | IC50 (GluN1–1a/2B; [6]): 4.2 ± 0.7 µM | IC50 (GluN1–1a/2B; [7]): 19.2 ± 2 µM | IC50 (GluN1–1a/2B; [8]): 2.1 ± 0.3 µM | IC50 (GluN1–1a/2B; [9]): 17 ± 2 µM | IC50 (GluN1–1a/2B; [10]): 1 ± 0.1 µM | nH (GluN1–1a/2B; [11]): 1.2 | nH (GluN1–1a/2B; [12]): 1.0 | nH (GluN1–1a/2B; [13]): 1.3 | nH (GluN1–1a/2B; [14]): 1.0 | nH (GluN1–1a/2B; [15]): 1.1 | nH (GluN1–1a/2B; [16]): 1.0 | IC50 (GluN1–1a/2D; [5]): 4.5 ± 0.5 µM | IC50 (GluN1–1a/2D; [6]): 3.8 ± 0.2 µM | IC50 (GluN1–1a/2D; [7]): 3.5 ± 0.5 µM | IC50 (GluN1–1a/2D; [8]): 2.4 ± 0.2 µM | IC50 (GluN1–1a/2D; [9]): 2.6 ± 0.4 µM | IC50 (GluN1–1a/2D; [10]): 1.3 ± 0.1 µM | nH (GluN1–1a/2D; [11]): 1.0 | nH (GluN1–1a/2D; [12]): 1.0 | nH (GluN1–1a/2D; [13]): 1.0 | nH (GluN1–1a/2D; [14]): 1.0 | nH (GluN1–1a/2D; [15]): 1.1 | nH (GluN1–1a/2D; [16]): 1.0

CC12CC3CC(C)(C1)CC(N)(C3)C2 [memantine]
nH (GluN1–1a/2B; [11]): 1.1 | nH (GluN1–1a/2B; [12]): 0.9 | nH (GluN1–1a/2B; [13]): 1.0 | nH (GluN1–1a/2B; [14]): 1.0 | nH (GluN1–1a/2B; [15]): 1.1 | nH (GluN1–1a/2B; [16]): 1.0 | nH (GluN1–1a/2BC1/2DC2; [11]): 1.0 | nH (GluN1–1a/2BC1/2DC2; [12]): 1.1 | nH (GluN1–1a/2BC1/2DC2; [13]): 0.9 | nH (GluN1–1a/2BC1/2DC2; [14]): 1.0 | nH (GluN1–1a/2BC1/2DC2; [15]): 0.9 | nH (GluN1–1a/2BC1/2DC2; [16]): 1.0 | nH (GluN1–1a/2D; [11]): 1.0 | nH (GluN1–1a/2D; [12]): 1.1 | nH (GluN1–1a/2D; [13]): 1.0 | nH (GluN1–1a/2D; [14]): 1.1 | nH (GluN1–1a/2D; [15]): 1.0 | nH (GluN1–1a/2D; [16]): 1.1

[Mg+2] [Mg^2+]
IC50 (GluN1–1a/2B; [17]): 161 ± 11.8 µM | nH (GluN1–1a/2B; [17]): 0.9 | IC50 (GluN1–1a/2B; [18]): 26 µM and 25.5 µM | nH (GluN1–1a/2B; [18]): 1.0 | IC50 (GluN1–1a/2B; [19]): 5.5 ± 0.4 µM | nH (GluN1–1a/2B; [19]): 1.0 | IC50 (GluN1–1a/2B; [20]): 1.6 ± 0.3 µM | nH (GluN1–1a/2B; [20]): 0.9 | δ, fraction of the membrane electric field sensed by the blocking site (GluN1–1a/2B; Woodhull model, 0.1 mM Mg2+): 1.08 | K0.5(0 mV), Mg2+ concentration producing half-maximal block at 0 mV (GluN1–1a/2B; [21]): 4.5 mM | IC50 (GluN1–1a/2BC1/2DC2; [17]): 518 ± 14.3 µM | nH (GluN1–1a/2BC1/2DC2; [17]): 0.8 | IC50 (GluN1–1a/2BC1/2DC2; [18]): 80 µM and 79.2 µM | nH (GluN1–1a/2BC1/2DC2; [18]): 0.9 | IC50 (GluN1–1a/2BC1/2DC2; [19]): 19.9 ± 0.8 µM | nH (GluN1–1a/2BC1/2DC2; [19]): 0.9 | IC50 (GluN1–1a/2BC1/2DC2; [20]): 6.8 ± 0.5 µM | nH (GluN1–1a/2BC1/2DC2; [20]): 0.9 | δ, fraction of the membrane electric field sensed by the blocking site (GluN1–1a/2BC1/2DC2; Woodhull model, 0.1 mM Mg2+): 0.95 | K0.5(0 mV), Mg2+ concentration producing half-maximal block at 0 mV (GluN1–1a/2BC1/2DC2; [21]): 6.6 mM | IC50 (GluN1–1a/2D; [17]): 937 ± 85.9 µM | nH (GluN1–1a/2D; [17]): 1.0 | IC50 (GluN1–1a/2D; [18]): 254 µM | nH (GluN1–1a/2D; [18]): 1.0 | IC50 (GluN1–1a/2D; [19]): 72.5 ± 1.8 µM | nH (GluN1–1a/2D; [19]): 1.0 | IC50 (GluN1–1a/2D; [20]): 25.1 ± 0.4 µM | nH (GluN1–1a/2D; [20]): 1.0 | δ, fraction of the membrane electric field sensed by the blocking site (GluN1–1a/2D; Woodhull model, 0.1 mM Mg2+): 0.82 | K0.5(0 mV), Mg2+ concentration producing half-maximal block at 0 mV (GluN1–1a/2D; [21]): 11 mM

Cc1ncc(CNC(=O)c2cnc(CNS(=O)(=O)c3ccc(F)c(Cl)c3)cn2)s1 [MPX-004]
NMDAR-EPSC peak amplitude, % of baseline [1]: 45 ± 2 % of baseline | effect on EPSC decay time [1]: significantly slowed | NMDAR-EPSC peak amplitude, % of baseline [2]: 98 ± 5 % of baseline

C[C@@H]([C@@H](O)c1ccc(O)cc1)N1CCC(O)(c2ccccc2)CC1 [CP-101,606]
NMDAR-EPSC peak amplitude, % of baseline [1]: 50 ± 3 % of baseline | effect on EPSC decay time [1]: significantly accelerated | NMDAR-EPSC peak amplitude, % of baseline [2]: 30 ± 3 % of baseline | effect on EPSC decay time ([2]; treatment versus baseline, paired t test, 10 μM (spermine 100 μM)): unchanged | nH (Hill coefficient) (GluN1–1a/2B; isoform 1a): 1.4 | maximal inhibition (GluN1–1a/2B; isoform 1a): ~ 95% | nH (Hill coefficient) (GluN1–1a/2BC1/2DC2; isoform 1a): 1.4 | maximal inhibition (GluN1–1a/2BC1/2DC2; isoform 1a): ~ 65%

COc1ccc2nc(/C=C/c3cccc([N+](=O)[O-])c3)n(-c3ccc(C(=O)O)cc3)c(=O)c2c1 [QNZ-46]
Relative Imin (GluN1–1a/2B; at 30 μM, isoform 1a): 76 ± 1% | Relative Imin (GluN1–1a/2BC1/2DC2; isoform 1a): 4 ± 1 % | nH (Hill coefficient) (GluN1–1a/2BC1/2DC2; isoform 1a): 1.0 | maximal inhibition (GluN1–1a/2BC1/2DC2; isoform 1a): ~ 100% | IC50 (GluN1–1a/2BC1/2DC2; [3]): 10 ± 1 µM | Relative Imin (GluN1–1a/2D; [4]): −3 ± 1% | nH (Hill coefficient) (GluN1–1a/2D; isoform 1a): 1.0 | maximal inhibition (GluN1–1a/2D; isoform 1a): ~ 100% | IC50 (GluN1–1a/2D; [3]): 2.7 ± 0.1 µM
